Assays:
[1] = refractive index (Na D-line) (dimensionless); xn = mol fraction of the nth substance listed; conditions: 101 kPa, Liquid, Standard Abbe refractometry
[2] = xn = mol fraction of the nth substance listed; conditions: 101 kPa, Liquid; for speed of sound: Pulse-echo method

C1CCCCCCC1 [cyclooctane] + Cc1ccc(C)cc1
Conditions | mass density, [2] [kg/m3] | refractive index, [1] | speed of sound, [2] [m/s]
298.15 K, x1 = 0.0534 | 854.3 | 1.49055 | 1312
298.15 K, x1 = 0.1004 | 852.6 | 1.4883 | 1314
298.15 K, x1 = 0.2025 | 848.8 | 1.48358 | 1319
298.15 K, x1 = 0.303 | 845.4 | 1.4792 | 1325
298.15 K, x1 = 0.402 | 842.4 | 1.47506 | 1332
298.15 K, x1 = 0.4986 | 839.6 | 1.47129 | 1339
298.15 K, x1 = 0.599 | 837.1 | 1.46764 | 1348
298.15 K, x1 = 0.6981 | 835 | 1.46424 | 1357
298.15 K, x1 = 0.7968 | 833.3 | 1.46119 | 1367
298.15 K, x1 = 0.8926 | 832 | 1.4585 | 1377
298.15 K, x1 = 0.9504 | 831.5 | 1.45707 | 1384
298.15 K, x1 = 1 | 831.5 | 1.45598 | 1391
313.15 K, x1 = 0.0485 | 841.6 | 1.48247 | 1250
313.15 K, x1 = 0.0874 | 840.2 | 1.48077 | 1252
313.15 K, x1 = 0.1848 | 836.7 | 1.47651 | 1256
313.15 K, x1 = 0.2948 | 833.2 | 1.472 | 1262
313.15 K, x1 = 0.3853 | 830.4 | 1.46825 | 1268
313.15 K, x1 = 0.4829 | 827.7 | 1.46454 | 1274
313.15 K, x1 = 0.5809 | 825.3 | 1.46094 | 1282
313.15 K, x1 = 0.6837 | 823.1 | 1.45755 | 1291
313.15 K, x1 = 0.7877 | 821.3 | 1.45432 | 1301
313.15 K, x1 = 0.8888 | 820 | 1.45148 | 1312
313.15 K, x1 = 0.9413 | 819.5 | 1.4501 | 1318
313.15 K, x1 = 1 | 819.2 | 1.44877 | 1325

From the NIST ThermoML archive (doi:10.1021/je901020a)
